# Laboratory results from patent US20250186541A1, “DLL3 TARGETING PEPTIDES AND CONSTRUCTS THEREOF” (MARIANA ONCOLOGY INC., priority 2023, published 2025).
# Numbered stars: 1 amine (or outer) side, 2 acyl side, 3 side chain; on linkers, the order of the positions; unused ones are H or OH. Bridge positions count the residues as written; N and C are the ends. Square brackets hold non-standard residues; d marks the D form. Peptide text beside a SMILES is read from it. * marks the point of attachment. Ala(piperidin-4-yl) = O=C([C@H](CC1CCN([*:3])CC1)N[*:1])[*:2]; DOTA = O=C(O)CN1CCN(CC(=O)O)CCN(CC(=O)*)CCN(CC(=O)O)CC1; Phe(4-CH2NH2) = NCc1ccc(C[C@H](N)C(=O)O)cc1; 1Nal = N[C@@H](Cc1cccc2ccccc12)C(=O)O; 2Nal = N[C@@H](Cc1ccc2ccccc2c1)C(=O)O; tBuAla = CC(C)(C)C[C@H](N)C(=O)O; AllylGly = C=CC[C@H](N)C(=O)O; αMeP = C[C@@]1(C(=O)O)CCCN1; NMeS = CN[C@@H](CO)C(=O)O; Ahx = NCCCCCC(=O)O
# What was measured:
# [1] = tested on: SHP-77 cells; assay: Cell binding (total uptake) of [177Lu]Lu-labeled peptide, gamma counter bound fraction; assay type: cell-based, human; conditions: [177Lu]Lu-test peptide, 1 h, 37° C., 1% PBSA
# Protocol: (§1) Example 4. Cell Binding, Internalization, and Radiolabeling of Targeting Moieties Polypeptides General Procedure for Radiolabeling of RPTs with [^177Lu]LuCl3
# (§2) [^177Lu]LuCl3 was received from venders in HCl solution. For every mCi of [^177Lu]LUCl3 added to the reaction vial (1.5 mL Eppendorf vial), ammonium acetate buffer (0.2 M, pH 4.9, 100 μL, containing 1% w/v ascorbic acid and 6% v/v ethanol) and peptide conjugate (1 nmol) was added. The pH of the solution was determined to be approximately 5 by using pH strips. The reaction vial was incubated at 80° C., 700 RPM for 17-20 minutes. A sample from the reaction was analyzed by RP-HPLC using an Agilent Infinity II 1260 HPLC to determine reaction completion and radiochemical purity. HPLC conditions: Waters XBridge BEH […] Column, 130 Å, 3.5 um, 4.6 mm×250 mm; mobile phase: Solvent A=water (with 0.1% formic acid), solvent B=acetonitrile (with 0.1% formic acid). Gradients: 25-45% B in 10 minutes, 45-65% B in 12 minutes, 65-90% in 6 minutes at a flow rate of 0.5 mL/min. Required amounts of the product was formulated in 1% PBSA for cell studies.
# (§3) The study was conducted using SHP-77cells (Table 7) Adherent cell studies: The cells were cultured in appropriate culture media (20 mL) in tissue culture treated T150 flasks at 37° C. and 5% CO2. Adherent cells were detached (60-70% confluent) using 5 mL Versene at 37° C. for 3 min. After confirming the viability using countess and count of detached cells using Trypan blue, the cells were centrifuged at 4° C. for 5 minutes (1,000 rpm). The cell pellet obtained was washed once with PBS and resuspended in 1% PBSA to obtain the desired cell concentration (5-25 million cells/mL).
# as §3, with “Suspension” for “The study was conducted using SHP-77cells (Table 7) Adherent”, “CO2.” for “CO2. Adherent cells were detached (60-70% confluent) using 5 mL Versene at 37° C. for 3 min.”, “viability” for “viability using countess”
# (§4) Cell numbers used for the assay were in the range of 5 million cells/condition −25 million cells/condition.
# Total uptake: Cells were incubated with 300 μL (0.8 μCi) of the incubation buffer (containing radiolabeled peptide [^177Lu]Lu-test peptide) for 1 hour at 37 C (Table 8). Post incubation, the cells were pelleted and washed 2 times using cold PBS+1% BSA. The supernatant and washes were combined and counted together as “unbound fraction” in a gamma counter. The cells were then resuspended in 300 μL of 1% PBS+1% BSA and counted in the gamma counter as “bound fraction”.
# (§5) SHP-77 cells are human-derived, non-engineered SCLC cells.
# [2] = tested on: SHP-77 cells; assay: Internalization of [177Lu]Lu-labeled peptide after glycine acid wash, gamma counter internalized fraction; assay type: cell-based, human; conditions: [177Lu]Lu-test peptide, 1 h, 37° C., acid wash 50 mM Glycine pH 2.5
# Protocol: as §1, §2, §3
# as §3, with “Suspension” for “The study was conducted using SHP-77cells (Table 7) Adherent”, “CO2.” for “CO2. Adherent cells were detached (60-70% confluent) using 5 mL Versene at 37° C. for 3 min.”, “viability” for “viability using countess”
# as §4
# Internalization: The resuspended cells in 300 μl of 1% PBSA and counted in the gamma counter as “bound fraction” were collected in 1.5 ml Eppendorf tube and pelleted. The pelleted cells were incubated with 300 μl of 50 mM Glycine pH=2.5 for 3 minutes and then pelleted discarding the supernatant. This process was repeated one more time. The pelleted cells were washed with 300 μl of cold 1% PBSA and then resuspended in 300 μl 0.3M NaOH. This was counted in the gamma counter as “internalized fraction”.
# as §5
# [3] = target: T1, human DLL3 (Homo sapiens, UniProt Q9NYJ7); assay: Affinity determination by Surface Plasmon Resonance (SPR), Biacore, 1:1 binding model; conditions: biotinylated human DLL3 on streptavidin chip, 25° C.; NB = nonbinding
# T1 construct: biotin (biotinylated)
# T1 sequence (Q9NYJ7 27-618): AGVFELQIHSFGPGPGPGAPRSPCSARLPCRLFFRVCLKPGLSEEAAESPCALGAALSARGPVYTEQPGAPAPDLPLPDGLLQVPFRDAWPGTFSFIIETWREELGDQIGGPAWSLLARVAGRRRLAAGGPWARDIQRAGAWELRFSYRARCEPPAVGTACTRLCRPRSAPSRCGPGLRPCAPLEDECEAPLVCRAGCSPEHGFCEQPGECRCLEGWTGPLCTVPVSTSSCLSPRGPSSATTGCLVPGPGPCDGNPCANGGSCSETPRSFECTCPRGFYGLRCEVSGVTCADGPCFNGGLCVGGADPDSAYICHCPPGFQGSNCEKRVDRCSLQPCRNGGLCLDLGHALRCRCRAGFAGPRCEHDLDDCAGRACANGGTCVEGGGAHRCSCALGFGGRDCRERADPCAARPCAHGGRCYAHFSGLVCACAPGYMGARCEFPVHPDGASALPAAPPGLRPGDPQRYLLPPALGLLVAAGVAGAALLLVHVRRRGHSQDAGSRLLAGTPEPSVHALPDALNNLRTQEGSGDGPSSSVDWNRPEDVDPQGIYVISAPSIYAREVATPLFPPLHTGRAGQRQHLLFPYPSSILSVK
# Summary of the method: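 SPR with biotinylated human DLL3 captured on a streptavidin chip, with a reference surface subtracted. Samples were injected at several concentrations at 100 μL/min in phosphate buffer with 137 mM NaCl, 2.7 mM KCl, 0.05% P20 and 2% DMSO. Kinetic and affinity constants came from a 1:1 binding fit.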
SMILES,% Binding [1] [%],% Internalization (out of bound fraction) [2] [%],Kd [3] [pM]
"CC(C)(C)C[C@@H]1NC(=O)[C@H](Cc2cccc3ccccc23)NC(=O)[C@@H](NC(=O)[C@H](CC(=O)O)NC(=O)[C@H](CO)NC(=O)CCCCCNC(=O)CN2CCN(CC(=O)O)CCN(CC(=O)O)CCN(CC(=O)O)CC2)CSSC[C@@H](C(=O)N2CCC[C@@]2(C)C(=O)N[C@@H](Cc2ccccc2)C(=O)N[C@@H](CC(=O)O)C(N)=O)NC(=O)[C@H](CC(N)=O)NC(=O)[C@H](Cc2ccc3ccccc3c2)NC(=O)[C@H](CC2CCNCC2)NC1=O [compound 176, DOTA-Ahx-S-D-C(3)-(1Nal)-(t-Bu-Ala)-[3-(4-piperidinyl)-Ala]-(2Nal)-N-C(3)-(aMe-P)-F -D-CONH2] ({DOTA-Ahx}-SDC[1Nal][tBuAla][Ala(piperidin-4-yl)][2Nal]NC[αMeP]FD-NH2; disulfide 3-9)",6,53,47
"CC(=O)N[C@@H](CC1CCNCC1)C(=O)N(C)[C@@H](CO)C(=O)N[C@@H](CC(=O)O)C(=O)N[C@H]1CSSC[C@@H](C(=O)N2CCC[C@@]2(C)C(=O)N[C@@H](Cc2ccccc2)C(=O)N[C@@H](CC(=O)O)C(N)=O)NC(=O)[C@H](CC(N)=O)NC(=O)[C@H](Cc2ccc3ccccc3c2)NC(=O)[C@H](Cc2ccc(CNC(=O)CN3CCN(CC(=O)O)CCN(CC(=O)O)CCN(CC(=O)O)CC3)cc2)NC(=O)[C@H](CC(C)(C)C)NC(=O)[C@H](Cc2cccc3ccccc23)NC1=O [compound 191, Ac-[3-(4-piperidinyl)-Ala]-(NMe-Ser)-D-C(3)-(1Nal)-(t-Bu-Ala)-[PAF(DOTA)]-(2Nal)-N-C(3)-(aMe-P)-F-D-CONH2] (Ac-[Ala(piperidin-4-yl)][NMeS]DC[1Nal][tBuAla][Phe(4-CH2NH2)](DOTA)[2Nal]NC[αMeP]FD-NH2; disulfide 4-10)",10,48,210
"CC(=O)N[C@@H](CC1CCNCC1)C(=O)N(C)[C@@H](CO)C(=O)N[C@@H](CC(N)=O)C(=O)N[C@H]1CSSC[C@@H](C(=O)N2CCC[C@@]2(C)C(=O)N[C@@H](Cc2ccccc2)C(=O)N[C@@H](CC(=O)O)C(N)=O)NC(=O)[C@H](CC(N)=O)NC(=O)[C@H](Cc2ccc3ccccc3c2)NC(=O)[C@H](Cc2ccc(CNC(=O)CN3CCN(CC(=O)O)CCN(CC(=O)O)CCN(CC(=O)O)CC3)cc2)NC(=O)[C@H](CC(C)(C)C)NC(=O)[C@H](Cc2cccc3ccccc23)NC1=O [compound 192, Ac-[3-(4-piperidinyl)-Ala]-(NMe-Ser)-N-C(3)-(1Nal)-(t-Bu-Ala)-[PAF(DOTA)]-(2Nal)-D-C(3)-(aMe-P)-F-D-CONH2] (Ac-[Ala(piperidin-4-yl)][NMeS]NC[1Nal][tBuAla][Phe(4-CH2NH2)](DOTA)[2Nal]NC[αMeP]FD-NH2; disulfide 4-10)",9,45,270
"CC(=O)N[C@H](C)C(=O)N(C)[C@@H](CO)C(=O)N[C@@H](CC(=O)O)C(=O)N[C@H]1C/C=C/C[C@@H](C(=O)N2CCC[C@@]2(C)C(=O)N[C@@H](Cc2ccccc2)C(=O)N[C@@H](CC(=O)O)C(N)=O)NC(=O)[C@H](CC(N)=O)NC(=O)[C@H](Cc2ccc3ccccc3c2)NC(=O)[C@H](Cc2ccc(CNC(=O)CN3CCN(CC(=O)O)CCN(CC(=O)O)CCN(CC(=O)O)CC3)cc2)NC(=O)[C@H](CC(C)(C)C)NC(=O)[C@H](Cc2cccc3ccccc23)NC1=O [compound 195, Ac-(D-Ala)-(NMe-Ser)-D-AllyG(4)-(1Nal)-(t-Bu-Ala)-[PAF(DOTA)]-(2Nal)-N-AllyG(4)-(aMe-P)-F-D-CONH2] (Ac-[dA][NMeS]D[AllylGly][1Nal][tBuAla][Phe(4-CH2NH2)](DOTA)[2Nal]N[AllylGly][αMeP]FD-NH2; staple (E) 4-10)",7,43,630
